“And” between values parts separate entries of the source, which are not always exact repeats. Equal values may be shown once. Read-outs that look alike come from different tables or passages of the source.
Columns and labels:
[1] = test system: A498 human renal carcinoma; assay: Cytotoxicity, sulphorodamine B test, A498; format: cell-based; conditions: A498 cells, 72 h, cell survival; read-out: A498 IC50 ± SD
Protocol: (§1) Cytotoxicity of the Conjugates on Different Tumor Cell Lines
(§2) To evaluate the effect of the compound on cell survival, the sulphorodamine B test was used. PC3 human prostate carcinoma, A498 human renal carcinoma, A2780 human ovarian carcinoma cells were used. A2780 and PC3 tumor cells were grown RPMI 1640 containing 10% fetal bovine serum (GIBCO), whereas A498 tumor cells were grown in EMEM containing 10% fetal bovine serum (GIBCO).
(§3) Tumor cells were seeded in 96-well tissue culture plates (Corning) at approximately 10% of confluence and were allowed to attach and recover for at least 24 h. […] The plates were incubated for 72 h at 37° C. At the end of the treatment, the plates were washed by remotion of the surnatant and addition of PBS 3 times. 200 μl PBS and 50 μl of cold 80% TCA were added. The plates were incubated on ice for at least 1 h. TCA was removed, the plates were washed 3 times for immersion in distilled-water and dried on paper and at 40° C. for 5 min. Then 200 μl of 0.4% sulphorodamine B in 1% acetic acid were added. The plates were incubated at room temperature for other 30 min. Sulphorodamine B was removed, the plates were washed for immersion in 1% acetic acid for 3 times, then they were dried on paper and at 40° C. for 5 min. Then 200 μl Tris 10 mM were added, the plates were kept under stirring for 20 min. The survival cell was determined as optical density by a Multiskan spectrofluorimeter at 540 nm. The amount of cells killed was calculated as the percentage decrease in sulphorodamine B binding compared with control cultures. The IC50 values were calculated with the “ALLFIT” program.

purified αvβ3 receptor = target: T1, purified αvβ3 receptor (Homo sapiens, UniProt P05106+P06756); assay: Binding to integrin αvβ3 receptors ([125I]echistatin competition)
T1 construct: purchased Chemicon CC1020
Protocol: Binding to Integrin αvβ3 Receptors
(§4) An aliquot of 100 μl was added to 96-well plates and incubated overnight at +4° C. Plates were washed once with buffer (50 mM Tris, pH 7,4, 100 mM NaCl, 2 mM CaCl2, 1 mM MgCl2, 1 mM MnCl2, 1% bovine serum albumin) and then incubated for another 2 hours at room temperature. Plates were washed twice with the same buffer and incubated for 3 hours at room temperature with the radioactive ligand [^125I]echistatin (Amersham Pharmacia Biotech) 0.05 nM in the presence of competition ligands. At the end of incubation, the wells were washed and the radioactivity determined using a gamma counter (Packard). Non-specific binding of the ligand was determined in the presence of excess cold echistatin (1 μM).
(§5) Evaluation of IC50 Parameters
(§6) The IC50 parameter was elaborated using “ALLFIT” software.

[2] = test system: A2780 human ovarian carcinoma cells; assay: Cytotoxicity, sulphorodamine B test, A2780; format: cell-based; conditions: 72 h, cell survival, read-out: A2780 IC50 ± SD
Protocol: as §1, §2, §3

[3] = test system: PC3 human prostate carcinoma; assay: Cytotoxicity, sulphorodamine B test, PC3; format: cell-based; conditions: PC3 cells, 72 h, cell survival; read-out: PC3 IC50 ± SD
Protocol: as §1, §2, §3

purified αvβ5 receptor = target: T2, purified αvβ5 receptor (Homo sapiens, UniProt P06756+P18084); assay: Binding to integrin αvβ5 receptors ([125I]echistatin competition)
T2 construct: purchased Chemicon CC1020
Protocol: Binding to Integrin αvβ5 Receptors
as §4, with “7.4,” for “7,4,”, “0.15” for “0.05”, “Non-specific ligand” for “Non-specific”, “binding” for “binding of the ligand”
as §5, §6

| Structure (SMILES) | IC50 [1] | IC50 (purified αvβ3 receptor; inhibition of specific [125I]echistatin 0.05 nM binding, 3 hours at room temperature, read-out: αvβ3 IC50 ± SD) | IC50 [2] | IC50 [3] | IC50 (purified αvβ5 receptor; inhibition of specific [125I]echistatin 0.15 nM binding, 3 hours at room temperature, read-out: αvβ5 IC50 ± SD) | IC50 (purified αvβ3 receptor) | IC50 (purified αvβ5 receptor) |
| --- | --- | --- | --- | --- | --- | --- | --- |
| CC[C@@]1(O)C(=O)OCc2c1cc1n(c2=O)Cc2c-1nc1ccccc1c2/C=N\OCCNC(=O)CCC[C@@H]1NC(=O)[C@@H](Cc2ccccc2)NC(=O)[C@H](CC(=O)O)NC(=O)CNC(=O)[C@H](CCCNC(=N)N)NC1=O [ST2686] | 3.2 µM | 0.00059 ± 1e-05 µM | 0.4 ± 0.03 µM | 15 ± 1.5 µM | 0.00037 ± 1e-05 µM |  |  |
| CC[C@@]1(O)C(=O)OCc2c1cc1n(c2=O)Cc2c-1nc1ccccc1c2/C=N\OCCNC(=O)CCC(=O)NCc1ccc(C[C@@H]2NC(=O)[C@@H](Cc3ccccc3)NC(=O)[C@H](CC(=O)O)NC(=O)CNC(=O)[C@H](CCCNC(=N)N)NC2=O)cc1 [ST2724] | 4.3 µM |  | 0.16 ± 0.001 µM | 4.7 ± 0.4 µM |  | 0.00727 ± 6e-05 µM | 0.00839 ± 7e-05 µM |
| CC[C@@]1(O)C(=O)OCc2c1cc1n(c2=O)Cc2c-1nc1ccccc1c2/C=N\OCCNC(=O)COCCOCCOCC(=O)NCc1ccc(C[C@@H]2NC(=O)[C@@H](Cc3ccccc3)NC(=O)[C@H](CC(=O)O)NC(=O)CNC(=O)[C@H](CCCNC(=N)N)NC2=O)cc1 [ST2742] | 0.74 µM and 0.7 µM |  | 0.18 ± 0.01 µM | 27 ± 3.9 µM |  | 0.0125 ± 0.0021 µM | 0.0065 ± 3e-05 µM |

— patent publication US7705012B2, “Camptothecins conjugated in position 7 to cyclic peptides as cytostatic agents” (priority 2004, dated 2010)
